Values quoted from earlier work in PMC3273554 (Molecular Pharmaceutics, 2011).

Legend:
[1] = system: HLA-A201; conditions: 100µg (63.8nmol) with 50µg PADRE T helper epitope in IFA
[2] = system: T cells; conditions: intracellular IFN-γ staining
[3] = system: B16F10; conditions: delivered with poly(I:C) and anti-CD40, boosted; prophylactic B16F10 model
[4] = system: melanoma, BRAF V600E

For SMYDFFVWL [Trp2 2M], the “IFN-γ elicited compared to vaccination with wild type peptide” value [1] is given as “higher amounts of IFN-γ”.
For SIYDFFVWL [deltaV], the “T cell responsiveness to Trp2” value [2] is given as “increased T cell responsiveness” and the “Tumor growth delay compared to wild type peptide” value [3] is given as “no increased growth delay”.
In the case of `CCCS(=O)(=O)Nc1ccc(F)c(C(=O)c2c[nH]c3ncc(-c4ccc(Cl)cc4)cc23)c1F` [vemurafenib], the “Response rate in trials” value [4] is given as at most 81%.
